{
  "source": "patent US8999970B2",
  "about": "“Administration of an anti-obesity compound to individuals with renal impairment” (Arena Pharmaceuticals, Inc., priority 2010, dated 2015)",
  "test": "Creatinine and creatinine clearance during 52 weeks in pooled phase 3 studies",
  "assay_type": "in vivo, human",
  "procedure": "Few patients in the APD356-009 trial developed creatinine values above or creatinine clearance values below normal (Table 12). At study entry, no patient had creatinine clearance less than 30 mL/min, and only 4 (1 randomized to lorcaserin, 3 to placebo) had values below 40 mL/min based on ideal body weight. […] Given the small number of patients with moderate or greater renal impairment in the phase 3 studies, a meaningful evaluation of the relationship between adverse events and renal impairment is not possible.",
  "data": [
    {"smiles": "C[C@H]1CNCCc2ccc(Cl)cc21", "note": "[Lorcaserin, (R)-8-chloro-1-methyl-2,3,4,5-tetrahydro-1H-3-benzazepine]", "values": [
      {"measurement": "Creatinine Clearance at Last Observation (Ideal Body Weight), Mean (SEM) Change from Baseline", "setting": "Any Lorcaserin Dose, N 3746", "value": "0.25 (0.165)"},
      {"measurement": "Creatinine Clearance at Last Observation (Ideal Body Weight), Mean (SEM) Change from Baseline", "setting": "Lorcaserin 10 mg BID Pooled, N 2992", "value": "0.47 (0.181)"}
    ]}
  ]
}
